15 compounds from patent US11370794B2, “Toll-like receptor antagonist compounds and methods of use” (Dynavax Technologies Corporation, priority 2016, dated 2022) can be followed below.

One assay addresses T1, human TLR8 (Homo sapiens, UniProt Q9NR97).
T1 construct: endogenous in cells; host or cells: primary human monocytes (CD14 microbeads) from buffy coats of healthy donors
T1 sequence (Q9NR97 27-1041): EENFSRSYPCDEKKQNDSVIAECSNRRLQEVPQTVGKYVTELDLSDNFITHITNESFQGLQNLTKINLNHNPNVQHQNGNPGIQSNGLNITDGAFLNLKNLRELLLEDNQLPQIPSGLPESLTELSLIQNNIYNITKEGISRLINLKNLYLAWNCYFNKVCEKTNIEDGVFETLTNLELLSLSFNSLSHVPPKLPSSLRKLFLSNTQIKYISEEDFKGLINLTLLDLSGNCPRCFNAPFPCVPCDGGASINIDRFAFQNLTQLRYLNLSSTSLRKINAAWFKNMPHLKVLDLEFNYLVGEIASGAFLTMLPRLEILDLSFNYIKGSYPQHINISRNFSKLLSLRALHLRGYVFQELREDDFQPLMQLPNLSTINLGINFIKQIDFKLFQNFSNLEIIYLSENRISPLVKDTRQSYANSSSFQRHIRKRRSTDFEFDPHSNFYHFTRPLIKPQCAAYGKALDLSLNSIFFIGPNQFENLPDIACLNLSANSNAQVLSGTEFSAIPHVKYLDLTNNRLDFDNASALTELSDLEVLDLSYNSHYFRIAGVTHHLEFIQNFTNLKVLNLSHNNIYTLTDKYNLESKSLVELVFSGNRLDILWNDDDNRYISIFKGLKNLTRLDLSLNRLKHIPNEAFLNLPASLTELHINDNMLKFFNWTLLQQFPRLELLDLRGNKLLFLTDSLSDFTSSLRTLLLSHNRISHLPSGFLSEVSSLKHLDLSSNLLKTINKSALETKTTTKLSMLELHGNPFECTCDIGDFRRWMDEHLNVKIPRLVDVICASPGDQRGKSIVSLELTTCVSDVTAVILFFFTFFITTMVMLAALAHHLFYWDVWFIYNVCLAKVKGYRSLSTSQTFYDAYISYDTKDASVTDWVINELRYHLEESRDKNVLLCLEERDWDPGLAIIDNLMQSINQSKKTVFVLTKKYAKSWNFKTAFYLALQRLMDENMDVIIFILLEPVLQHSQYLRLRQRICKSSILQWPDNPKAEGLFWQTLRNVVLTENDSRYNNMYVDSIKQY
The assay can be described thus: Inhibition of human TLR8 in human monocytes (TNF-alpha / IL-1 beta ELISA). Type of assay: cell-based. To be noted: for IC50: human monocytes, agonist ORN8L 100 μg/mL, 24 hours. The method, boiled down:
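Primary human monocytes from donor buffy coats (~200,000 cells/well) given serially diluted compound, then ORN8L RNA oligonucleotide agonist at 100 μg/mL final. After 24 h at 37 °C, supernatant TNF-alpha and/or IL-1 beta measured by ELISA; IC50 from the concentration-response of cytokine release.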

The next assay addresses T2, human TLR9 (Homo sapiens, UniProt Q9NR96).
T2 construct: endogenous in cells; host or cells: primary human B cells (CD19 microbeads) from buffy coats of healthy donors
T2 sequence (Q9NR96 26-1032): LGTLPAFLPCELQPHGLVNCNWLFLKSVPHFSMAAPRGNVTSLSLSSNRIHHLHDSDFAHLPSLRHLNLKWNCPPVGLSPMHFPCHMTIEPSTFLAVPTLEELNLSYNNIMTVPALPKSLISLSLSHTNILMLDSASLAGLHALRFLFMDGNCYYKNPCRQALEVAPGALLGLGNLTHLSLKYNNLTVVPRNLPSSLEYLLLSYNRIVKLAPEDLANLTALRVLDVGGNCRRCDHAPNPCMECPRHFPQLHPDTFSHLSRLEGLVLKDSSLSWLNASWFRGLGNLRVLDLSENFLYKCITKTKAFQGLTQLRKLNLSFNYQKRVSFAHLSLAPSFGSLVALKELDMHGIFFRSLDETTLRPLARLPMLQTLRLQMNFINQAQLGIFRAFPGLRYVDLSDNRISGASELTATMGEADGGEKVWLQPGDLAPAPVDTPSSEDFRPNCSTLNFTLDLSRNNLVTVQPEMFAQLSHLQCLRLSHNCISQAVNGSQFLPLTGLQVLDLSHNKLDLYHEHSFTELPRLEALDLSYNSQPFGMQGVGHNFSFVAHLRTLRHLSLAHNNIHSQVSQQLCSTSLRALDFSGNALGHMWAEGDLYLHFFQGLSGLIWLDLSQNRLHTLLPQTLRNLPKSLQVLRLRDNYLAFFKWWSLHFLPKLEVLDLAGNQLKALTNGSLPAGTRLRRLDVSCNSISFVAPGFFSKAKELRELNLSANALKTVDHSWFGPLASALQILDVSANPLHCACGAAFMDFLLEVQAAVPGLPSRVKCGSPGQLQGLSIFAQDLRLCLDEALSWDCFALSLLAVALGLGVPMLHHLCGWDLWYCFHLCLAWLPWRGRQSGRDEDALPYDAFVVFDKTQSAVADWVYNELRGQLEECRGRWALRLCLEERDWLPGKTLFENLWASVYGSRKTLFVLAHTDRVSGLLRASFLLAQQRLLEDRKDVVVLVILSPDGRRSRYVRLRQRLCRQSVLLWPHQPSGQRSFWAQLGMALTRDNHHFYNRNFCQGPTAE
The assay can be described thus: Inhibition of human TLR9 in human B cells (IL-6 ELISA). Type of assay: cell-based. To be noted: for IC50: human B cells, agonist 1018 ISS 1 μM, IL-6 readout, 48 hours, range about 0.01 to 10 μM, read-out: Human TLR9 IC50; for inhibits TLR9-dependent responses (in words): summary statement of the description. An outline of the steps:
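Primary human B cells (CD19-isolated from donor buffy coats), ~300,000 per well, treated with compound (about 0.01–10 μM, some 0.001–30 μM) then 1 μM CpG oligonucleotide 1018 ISS. After 48 hours at 37° C, supernatant IL-6 measured by ELISA; IC50 from concentration-response of TLR9-dependent activity.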
Background: In an ELISA, binding on a coated surface is turned into a signal by an enzyme label.

[1] abbreviates: TNF-alpha readout, read-out: Human TLR8 IC50 TNF-a.
[2] abbreviates: IL-1 beta readout, read-out: Human TLR8 IC50 IL-1b.

Read-outs that look alike come from different tables or passages of the source. Some results are limits rather than exact numbers.

As for `Cc1ccc(-n2nc3c(N4CCN(C(=O)NCCCN(C)C)CC4)nnc(C)c3c2C)cc1` [Compound No. 76, 4-(3,4-dimethyl-2-(p-tolyl)-2H-pyrazolo[3,4-d]pyridazin-7-yl)-N-(3-(dimethylamino)propyl)piperazine-1-carboxamide], the values for the half-inhibitory concentration (IC50) at human TLR8 (setting [1]) and on human TLR9 were 11700 nM and 118 nM, respectively.

With `Cc1ccc(-n2nc3c(N4CCCC(C(=O)NCCNC(C)C)C4)nnc(C)c3c2C)cc1` (stereo not shown) [compound 16, 1-(3,4-dimethyl-2-(p-tolyl)-2H-pyrazolo[3,4-d]pyridazin-7-yl)-N-(2-(isopropylamino)ethyl)piperidine-3-carboxamide], the figures for the IC50 on human TLR8 (setting [1]) and on human TLR9 were at least 20000 nM and 46 nM, respectively.

Consider `Cc1nnc(N2CCC(C(=O)NCCCN(C)C)CC2)c2nn(-c3ccsc3)c(C)c12` [compound 24, 1-(3,4-dimethyl-2-(thiophen-3-yl)-2H-pyrazolo[3,4-d]pyridazin-7-yl)-N-(3-(dimethylamino)propyl)piperidine-4-carboxamide], for which the IC50 at human TLR8 (setting [1]) is at least 20000 nM; on human TLR9 it was 400 nM.

For the compound `Cc1ccc(-n2nc3c(N4CCC(C(=O)NCC(C)(C)CN)CC4)nnc(C)c3c2C)cc1` [Compound No. 7, N-(3-amino-2,2-dimethylpropyl)-1-(3,4-dimethyl-2-(p-tolyl)-2H-pyrazolo[3,4-d]pyridazin-7-yl)piperidine-4-carboxamide], the IC50 at human TLR8 (setting [2]) was above 10000 nM; at human TLR8 (setting [1]) it was above 10000 nM; at human TLR9, 360 nM.

Regarding `Cc1nnc(N2CCC(C(=O)NCCN3CCCCC3C)CC2)c2nn(-c3ccccc3)c(C)c12` (stereo not shown) [24x, 1-(3,4-dimethyl-2-phenyl-2H-pyrazolo[3,4-d]pyridazin-7-yl)-N-(2-(2-methylpiperidin-1-yl)ethyl)piperidine-4-carboxamide], the figures for the IC50 on human TLR8 (setting [2]), at human TLR8 (setting [1]) and on human TLR9 were above 10000 nM, above 10000 nM and 32 nM, respectively. The “inhibits TLR9-dependent responses (in words)” value against human TLR9 is reported as “inhibit”.

As to `Cc1ccc(-n2nc3c(N4CCC(C(=O)NCCCN5CCOCC5)CC4)nnc(C)c3c2C)cc1` [Compound No. 19x, 1-(3,4-dimethyl-2-(p-tolyl)-2H-pyrazolo[3,4-d]pyridazin-7-yl)-N-(3-morpholinopropyl)piperidine-4-carboxamide], the concentration for half-maximal inhibition (IC50) on human TLR8 (setting [2]) amounted to 740 nM; at human TLR8 (setting [1]) it was 740 nM; on human TLR9 it was 18 nM. Besides, at human TLR9, the “inhibits TLR9-dependent responses (in words)” value is on record as “inhibit”.

Regarding `Cc1ccc(-n2nc3c(N4CCC(C(=O)N5CCC(CN6CCOCC6)C5)CC4)nnc(C)c3c2C)cc1` (stereo not shown) [compound 70, (1-(3,4-dimethyl-2-(p-tolyl)-2H-pyrazolo[3,4-d]pyridazin-7-yl)piperidin-4-yl)(3-(morpholinomethyl)pyrrolidin-1 yl)methanone], the IC50 on human TLR8 (setting [1]) was found to be 5120 nM; on human TLR9 it was 150 nM.

With `CCN1CCN(C(=O)C2CCN(c3nnc(C)c4c(C)n(-c5ccc(C)cc5)nc34)CC2)CC1` [51x, (1-(3,4-dimethyl-2-(p-tolyl)-2H-pyrazolo[3,4-d]pyridazin-7-yl)piperidin-4-yl)(4-ethylpiperazin-1-yl)methanone], the IC50 on human TLR8 (setting [2]) turned out to be 330 nM; on human TLR8 (setting [1]) it was 230 nM; on human TLR9, 6 nM. The “inhibits TLR8-dependent responses (in words)” value at human TLR8 (summary statement of the description) was “inhibit”. In addition, the “inhibits TLR9-dependent responses (in words)” value on human TLR9 is on record as “inhibit”.

For `CCN1CCCC1CNC(=O)C1CCN(c2nnc(C)c3c(C)n(-c4ccccc4)nc23)CC1` (stereo not shown) [33x, 1-(3,4-dimethyl-2-phenyl-2H-pyrazolo[3,4-d]pyridazin-7-yl)-N-((1-ethylpyrrolidin-2-yl)methyl)piperidine-4-carboxamide], the IC50 at human TLR8 (setting [2]) was above 10000 nM; at human TLR8 (setting [1]) it was above 10000 nM; at human TLR9, 70 nM.

As for `Cc1nnc(N2CCC(C(=O)NCCCN(C)C)CC2)c2nn(C3CCOCC3)c(C)c12` [compound 25, 1-(3,4-dimethyl-2-(tetrahydro-2H-pyran-4-yl)-2H-pyrazolo[3,4-d]pyridazin-7-yl)-N-(3-(dimethylamino)propyl)piperidine-4-carboxamide], the concentration for half-maximal inhibition (IC50) at human TLR8 (setting [1]) is at least 20000 nM; on human TLR9, above 10000 nM.

Consider `Cc1nnc(N2CCC(C(=O)NCCCN3CCN(C)CC3)CC2)c2nn(-c3ccccc3)c(C)c12` [31x, 1-(3,4-dimethyl-2-phenyl-2H-pyrazolo[3,4-d]pyridazin-7-yl)-N-(3-(4-methylpiperazin-1-yl)propyl)piperidine-4-carboxamide], for which the IC50 on human TLR8 (setting [2]) is above 10000 nM; at human TLR8 (setting [1]), above 10000 nM; at human TLR9, 211 nM.

On to `CNC(=O)C1CCN(c2nnc(C)c3c(C)n(-c4ccc(C)cc4)nc23)C1` (stereo not shown) [compound 57, 1-(3,4-dimethyl-2-(p-tolyl)-2H-pyrazolo[3,4-d]pyridazin-7-yl)-N-methylpyrrolidine-3-carboxamide], for which the concentration for half-maximal inhibition (IC50) on human TLR8 (setting [1]) was at least 20000 nM; on human TLR9, 9370 nM.

Take `Cc1ccc(-n2nc3c(Cl)nnc(N4CCC(C(=O)NCCCN(C)C)CC4)c3c2C)cc1` [compound 48, 1-(7-chloro-3-methyl-2-(p-tolyl)-2H-pyrazolo[3,4-d]pyridazin-4-yl)-N-(3-(dimethylamino)propyl)piperidine-4-carboxamide]: the IC50 on human TLR8 (setting [1]) is at least 20000 nM; on human TLR9, 10800 nM.

For the compound `Cc1ccc(-n2nc3c(N4CCC(C(=O)NCCN(C)C)CC4)nnc(C)c3c2C)cc1` [Compound No. 21x, 1-(3,4-dimethyl-2-(p-tolyl)-2H-pyrazolo[3,4-d]pyridazin-7-yl)-N-(2-(dimethylamino)ethyl)piperidine-4-carboxamide], the IC50 on human TLR8 (setting [2]) was above 10000 nM; at human TLR8 (setting [1]), above 10000 nM; at human TLR9, 4 nM. Further, the “inhibits TLR9-dependent responses (in words)” value on human TLR9 was “inhibit”.

As to `CCCN1CCN(C(=O)C2CCN(c3nnc(C)c4c(C)n(-c5ccccc5)nc34)CC2)CC1` [64x, (1-(3,4-dimethyl-2-phenyl-2H-pyrazolo[3,4-d]pyridazin-7-yl)piperidin-4-yl)(4-propylpiperazin-1-yl)methanone], the half-maximal inhibitory concentration (IC50) was found to be 660 nM on human TLR8 (setting [2]), 900 nM at human TLR8 (setting [1]) and 13 nM on human TLR9.

Broadly, the IC50 is the concentration that gives 50% inhibition.
